Like-named read-outs stand apart in the source and are kept apart here.
Tests used:
HCT-116 cells = test: MTS cell proliferation/cytotoxicity assay, HCT-116; type: cell-based; conditions: Homo sapiens
Procedure: (§1) The antiproliferative effects of the present compounds may be tested using a cell proliferation and/or cytotoxicity assay, following protocols described below.
(§2) MTS assays. Antiproliferative effects of anticancer drugs are tested by the CellTiter 96 AQueous assay (Promega, Wis.), which is a colorimetric assay for determining the number of viable cells. (See, e.g., Wang, L., et al., Methods Cell Sci (1996) 18:249-255).
(§3) Generally, cells (2,000 to 5,000 cells/well) are seeded on 96 well flat bottom plates (Corning, N.Y.) in 100 μl of culture medium without any anticancer drug on day 0, and the culture medium is exchanged for that contained anticancer drugs at various concentrations on day 1. After incubation for 3 days under normal growth conditions (on day 4), the monolayers are washed once in PBS, and the medium is switched to 100 μl of PBS in each of the 96 well plate. After mixing MTS and PMS at the ratio of 20:1, 20 μl of MTS/PMS solution is added to each of the 96 well plate and incubated for 4 hours in a humidified atmosphere of 5% CO2 at 37° C. The absorbance was read at 490 nm using FLUOstar Galaxy 96 well plate reader (BMG Labtechnologies, Germany).

HeLa cells = test: MTS cell proliferation/cytotoxicity assay, Hela; type: cell-based; conditions: Homo sapiens
Procedure: as §1
Cell culture. Human cervical epithelial cells (HeLa cells) are obtained from American Type Culture Collection (Manassas, Va.). Cells are grown in Eagle's minimum essential medium (MEM, Hyclone, Utah) supplemented with 2 mM Glutamine, 0.1 mM nonessential amino acid, 1 mM Na Pyruvate, 1.5 g/L NaHCO3, 50 mg/L gentamicin, and 10% fetal bovine serum (Hyclone, USA) in a humidified atmosphere of 5% CO2 at 37° C.
as §2, §3

[1] = molecular target: c-Myc template DNA (quadruplex); test: Quadruplex binding assay (STOP assay, Taq polymerase arrest, capillary electrophoresis); type: biochemical; conditions: concentration at which 50% of the DNA was arrested
Procedure: Generally, a 5′-fluorescent-labeled (FAM) primer (P45, 15 nM) was mixed with template DNA (15 nM) in a Tris-HCL buffer (15 mM Tris, pH 7.5) containing 10 mM MgCl2, 0.1 mM EDTA and 0.1 mM mixed deoxynucleotide triphosphates (dNTP's). In one example, the FAM-P45 primer (5′-6FAM-[…] CAATT-3′) (SEQ ID NO. 17) and the c-Myc template DNA (5′-[…] […] […]-3′) (SEQ ID NO. 18) were synthesized and HPLC purified by Applied Biosystems. The mixture was denatured at 95° C. for 5 minutes and, after cooling down to room temperature, was incubated at 37° C. for 15 minutes.
After cooling down to room temperature, 1 mM […] and the test compound (various concentrations) were added and the mixture incubated for 15 minutes at room temperature. The primer extension was performed by adding 10 mM KCl and Taq DNA Polymerase (2.5 U/reaction, Promega) and incubating at 70° C. for 30 minutes. The reaction was stopped by adding 1 μl of the reaction mixture to 10 μl Hi-Di Formamide mixed and 0.25 μl LIZ120 size standard. Hi-Di Formamide and LIZ120 size standard were purchased from Applied Biosystems. The partially extended quadruplex arrest product was between 61 or 62 bases long and the full-length extended product was 99 bases long. The products were separated and analyzed using capillary electrophoresis. Capillary electrophoresis was performed using an ABI PRISM 3100-Avant Genetic Analyzer. The assay was performed using compounds described above, and μM concentrations reported in Table 1 (Tables 1A-1F) are concentrations at which 50% of the DNA was arrested in the assay (i.e., the ratio of shorter partially extended DNA (arrested DNA) to full-length extended DNA is 1:1).
Stop Assays. Stop assays are high throughput, first-pass screens for detecting drugs that bind to and stabilize the target G-quadruplex. Generally, DNA template oligonucleotide is created, which contains the nucleotide sequence of the “target” quadruplex against which drug screening is desired. A fluorescently labeled primer DNA is then annealed to the 3′ end of the template DNA. A DNA polymerase such as Taq polymerase is then introduced to synthesize a complementary strand of DNA by extending from the fluorescently labeled primer. When the progress of the Taq polymerase is unhindered, it synthesizes a full-length copy of the template. […] If, however, the test drug selectively binds to and stabilizes the quadruplex, the progress of polymerase arrests only at the quadruplex, and a characteristic “Stop Product” is synthesized.
These products are visualized by capillary electrophoresis.

Row | SMILES | IC50 (HCT-116 cells; Table 1A) | IC50 (HeLa cells; Table 1A) | IC50 ([1]; Table 1B, read-out: STOP IC50) | IC50 (HCT-116 cells; Table 1B) | IC50 (HeLa cells; Table 1B) | also measured
1 | CN1CCCC1CCNC(=O)c1cn2c3c(c(N4CCC(c5cnccn5)C4)c(F)cc3c1=O)Oc1ccc(C(N)=O)cc1-2 (stereo not drawn) | 3.6 µM | 11 µM |  |  |  | 
2 | CN1CCCC1CCNC(=O)c1cn2c3c(c(N4CCC(c5cnccn5)C4)c(F)cc3c1=O)Oc1ccc(C#N)cc1-2 (stereo not drawn) | 0.4 µM | 1.2 µM |  |  |  | 
3 | N#Cc1ccc2c(c1)-n1cc(C(=O)NCCN3CCCC3)c(=O)c3cc(F)c(N4CCC(c5cnccn5)C4)c(c31)O2 (stereo not drawn) | 0.031 µM | 0.21 µM |  |  |  | IC50 ([1]; Table 1A, read-out: STOP IC50): 5 µM
4 | N#Cc1ccc2c(c1)-n1cc(C(=O)NCCN3CCOCC3)c(=O)c3cc(F)c(N4CCC(N)C4)c(c31)O2 (stereo not drawn) | 0.4 µM | 0.68 µM |  |  |  | 
5 | CC(C)N1CCN(c2c(F)cc3c(=O)c(C(=O)NCCN4CCCC4)cn4c3c2Oc2ccc(C#N)cc2-4)CC1 | 0.03 µM | 0.04 µM |  |  |  | IC50 ([1]; Table 1A, read-out: STOP IC50): 10 µM
6 | O=C(NCCN1CCCC1)c1cn2c3c(cc(SCCc4cnccn4)cc3c1=O)Oc1cc3ccccc3cc1-2 |  |  | 3.9 µM | 2.8 µM | 0.28 µM | 
7 | CN1CCCC1CCNC(=O)c1cn2c3c(cc(SCCc4cnccn4)cc3c1=O)Oc1cc3ccccc3cc1-2 (stereo not drawn) |  |  | 3.4 µM | 10 µM | 1.8 µM | 
8 | CN1CCCC1CCNC(=O)c1cn2c3c(cc(SCc4ccccc4)cc3c1=O)Oc1cc3ccccc3cc1-2 (stereo not drawn) |  |  | 14 µM | 3.9 µM | 5.2 µM | 
9 | Cc1cc(CSc2cc3c4c(c2)c(=O)c(C(=O)NCCC2CCCN2C)cn4-c2cc4ccccc4cc2O3)no1 (stereo not drawn) |  |  | 5.4 µM | 2.9 µM | 2.3 µM | 
10 | CN1CCCC1CCNC(=O)c1cn2c3c(cc(SCc4ccccn4)cc3c1=O)Oc1cc3ccccc3cc1-2 (stereo not drawn) |  |  | 3.8 µM | 3.1 µM | 2.5 µM | 
11 | CN1CCCC1CCNC(=O)c1cn2c3c(cc(SCCc4cnccn4)cc3c1=O)Oc1ccccc1-2 (stereo not drawn) |  |  | 10 µM | 3.8 µM | 3 µM | 
12 | CN1CCCC1CCNC(=O)c1cn2c3c(cc(SCc4ccncc4)cc3c1=O)Oc1cc3ccccc3cc1-2 (stereo not drawn) |  |  | 2.9 µM | 4.2 µM | 4.1 µM | 
13 | CC(=O)N1CCN(c2cc3c(=O)c(C(=O)NCCN4CCCC4)cn4c3c(c2F)Oc2cc(Cl)ccc2-4)CC1 |  |  |  |  |  | IC50 ([1]; Table 1C, read-out: STOP IC50): 6 µM
14 | CC1CCN(C(=O)c2cn3c4c(c(NCCN5CCOCC5)c(F)cc4c2=O)Oc2ccccc2-3)CC1 [Example 55] |  |  |  |  |  | IC50 ([1]; Table 1E, read-out: STOP Data): > 15 µM
15 | CN1CCCC1CCNC(=O)c1cn2c3c(c(N4CCC(c5cnccn5)C4)c(F)cc3c1=O)Oc1ccccc1-2 (stereo not drawn) [Example 81] |  |  |  |  |  | IC50 ([1]; Table 1E, read-out: STOP Data): 5.7 µM
